Structures can show the parent of a compound that is named as a salt. Where two headings read alike, the source gives them in different places.
Key:
β2-adrenoreceptor = β2-adrenoreceptor (Homo sapiens, UniProt P07550); assay: cAMP determination in cells expressing β2-adrenoreceptor; assay type: cell-based; details: read-out: EC50 (β2), binding potency measured by cAMP determination
Excerpt: (§1) Accordingly the invention also provides a compound of formula I in free, salt or solvate form for use as a pharmaceutical. […] The β2 agonist activity, onset of action and duration of action of the agents of the invention may be tested using the guinea pig tracheal stip in vitro assay according to the procedure of R. A. Coleman and A. T. Nials, J. Pharmacol. Methods (1989), 21(1), 71-86. The binding potency and selectivity for the β2-adrenoreceptor relative to the β1-adrenoreceptor can be measured by a classical filtration binding assay according to the procedure of Current Protocols in Pharmacology (S. J. Enna (editor-in-chief) et al, John Wiley & Son, Inc, 1998), or by cAMP determination in cells expressing β2- or β1-adrenoceptor, according to the procedure of B. January et al, British J. Pharmacol. 123: 701-711 (1998).

β1-adrenoreceptor = β1-adrenoreceptor (Homo sapiens, UniProt P08588); assay: cAMP determination in cells expressing β1-adrenoreceptor; assay type: cell-based
β1-adrenoreceptor, sequence (P08588 whole entry, species assumed): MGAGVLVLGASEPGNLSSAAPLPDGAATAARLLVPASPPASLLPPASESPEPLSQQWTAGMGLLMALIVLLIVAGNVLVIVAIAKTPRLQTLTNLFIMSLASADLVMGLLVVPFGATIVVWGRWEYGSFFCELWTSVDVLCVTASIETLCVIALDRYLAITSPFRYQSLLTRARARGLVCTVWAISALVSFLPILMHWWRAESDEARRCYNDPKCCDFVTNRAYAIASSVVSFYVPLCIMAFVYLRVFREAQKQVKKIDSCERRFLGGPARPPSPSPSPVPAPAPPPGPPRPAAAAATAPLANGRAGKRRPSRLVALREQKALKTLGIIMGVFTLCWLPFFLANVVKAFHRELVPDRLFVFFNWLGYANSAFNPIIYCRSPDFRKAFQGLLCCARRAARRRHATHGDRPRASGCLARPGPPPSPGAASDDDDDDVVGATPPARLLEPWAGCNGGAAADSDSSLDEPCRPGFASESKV
Excerpt: as §1

[1] = tested on: guinea pig tracheal strip; assay: guinea pig tracheal strip in vitro assay
Excerpt: as §1

[2] = cells expressing β1-adrenoreceptor, read-out: EC50 (β1), binding potency measured by cAMP determination

β2-adrenoreceptor, sequence (P07550 whole entry, species assumed): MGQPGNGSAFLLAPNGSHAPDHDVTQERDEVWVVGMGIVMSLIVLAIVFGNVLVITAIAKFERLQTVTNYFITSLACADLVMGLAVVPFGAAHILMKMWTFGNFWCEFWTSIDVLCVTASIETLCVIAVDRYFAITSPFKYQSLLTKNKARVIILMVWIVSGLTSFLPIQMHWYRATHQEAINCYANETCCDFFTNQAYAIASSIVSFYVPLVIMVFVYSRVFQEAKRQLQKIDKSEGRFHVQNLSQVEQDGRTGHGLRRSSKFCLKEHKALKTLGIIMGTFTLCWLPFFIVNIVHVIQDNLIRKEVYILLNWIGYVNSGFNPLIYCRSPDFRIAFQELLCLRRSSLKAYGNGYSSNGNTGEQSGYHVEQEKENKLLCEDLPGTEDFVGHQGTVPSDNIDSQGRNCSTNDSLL

Row | Compound | EC50 (β2-adrenoreceptor) [nM] | EC50 (β1-adrenoreceptor; [2]) [nM] | further results
1 | COc1ccc(OC)c2c1CC(NC[C@H](O)c1ccc(O)c3[nH]c(=O)ccc13)C2 [Example 1, (R)-8-hydroxy-5-[2-(4,7-Dimethoxy-indan-2-ylamino)-1-hydroxy-ethyl]-1H-quinolin-2-one hydrochloride] | 0.92 | 9.52 | –
2 | CCc1cc2c(cc1CC)CC(NCC(O)c1ccc(O)c3[nH]c(=O)ccc13)C2 (stereo not shown) [Example 2, 8-hydroxy-5-[2-(5,6-diethyl-indan-2-ylamino)-1-hydroxy-ethyl]-1H-quinolin-2-one] | 0.23 | – | T(50%), time for inhibition of contraction to decay to 50% of its maximum value ([1]; at 71 nM concentration): > 400 min; EC50 (β1-adrenoreceptor): 1.25 nM
3 | CCc1ccc(CC)c2c1CC(NC[C@H](O)c1ccc(O)c3[nH]c(=O)ccc13)C2 [Example 4] | 6.07 | 14.5 | T(50%), time for inhibition of contraction to decay to 50% of its maximum value ([1]; at 100 nM): 82 min
4 | O=c1ccc2c([C@@H](O)CNC3Cc4cc5c(cc4C3)CCCC5)ccc(O)c2[nH]1 [Example 5] | 0.79 | 6.1 | T(50%), time for inhibition of contraction to decay to 50% of its maximum value ([1]; at 100 nM): 444 min
5 | O=c1ccc2c([C@@H](O)CNC3Cc4cc5c(cc4C3)OCCO5)ccc(O)c2[nH]1 [Example 6] | 0.3 | 3.6 | –
6 | CCCc1cc2c(cc1CCC)CC(NC[C@H](O)c1ccc(O)c3[nH]c(=O)ccc13)C2 [Example 8] | 0.57 | 8.46 | –
7 | CC1(NC[C@H](O)c2ccc(O)c3[nH]c(=O)ccc23)Cc2ccccc2C1 [Example 27, 8-Hydroxy-5-[(R)-1-hydroxy-2-(2-methyl-indan-2-ylamino)-ethyl]-1H-quinolin-2-one] | 0.012 | 0.5 | T(50%), time for inhibition of contraction to decay to 50% of its maximum value ([1]; at 1.0 nM): 222 min
8 | CC1(NC[C@H](O)c2ccc(O)c3[nH]c(=O)ccc23)Cc2cc3c(cc2C1)CCCC3 [Example 29, 8-Hydroxy-5-[(R)-1-hydroxy-2-(2-methyl-2,3,5,6,7,8-hexahydro-1H-cyclopenta[b]naphthalen-2-ylamino)-ethyl]-1H-quinolin-2-one] | – | – | T(50%), time for inhibition of contraction to decay to 50% of its maximum value ([1]; at 10 nM): 279 min

Reference: patent US8796307B2, “Beta2-adrenoreceptor agonists” (Novartis AG, priority 1999, dated 2014)
